Data set [1] in a line: Stability of sumatriptan succinate in water and buffers of pH 2, 5, 7, 9 (HPLC). As to conditions: buffers with a pH of about 2 to 5, one month at 50° C. (additional studies not presented). In kind it is physicochemical.
Procedure: After mixing thoroughly, a 1 mL aliquot was removed for high performance liquid chromatography (HPLC) analysis. The remaining volume was then split into a glass tube to be kept at room temperature, and another glass tube to be kept at 50° C. Samples were pulled periodically from the 50° C. tubes for one month and analyzed by HPLC.
As used herein, degradation in percent area by area is that amount of degradation that is the ratio of the sum total of degradation peaks divided by the response factor (sumatriptan's standard curve slope value) multiplied by 100, and not a quantified amount of degradation.
A further data set can be described thus: physchem. To be noted: thermodynamic from solid. As to the method:
By apparent solubility is meant the solubility of the sumatriptan determined visually. The materials used were sumatriptan succinate and various reagents for preparation of the buffers. Hydrochloric acid was used for preparation of the pH 2 buffer, acetate for preparation of the pH 5 buffer, phosphate for preparation of the pH 7 buffer, and carbonate for the pH 9 buffer. The concentration of the buffers was 0.1 M.
A 1 mL aliquot of each buffer was placed in a glass scintillation vial. To this volume was added a small amount of sumatriptan. Each amount of sumatriptan was weighed on a balance. Weights typically ranged from between 5 and 35 mg. After each new addition of sumatriptan, the vial was shaken and visually inspected to determine if all of the sumatriptan was in solution. When small particles of undissolved sumatriptan appeared, no further amount of sumatriptan was added. These amounts of sumatriptan added before the final addition was added together and were listed as the lower limit of each pH. The upper limit of solubility was taken to be the sum total of sumatriptan added to the buffer when undissolved sumatriptan appeared. […] The diamond symbol in FIG. 1 represents the average value between the lower and upper limit.

The conditions of data set [2]: cited from earlier work.
The nature of data set [3]: Formulation at different pH: impurities after two weeks at 50° C. The format is physicochemical. To be noted: unbuffered (self-buffering). How it is done: Sumatriptan succinate has a self-buffering capacity due to it being a succinic acid salt.
These formulations were kept on stability studies at 50° C. for two weeks.
Levels of each impurity are expressed as percentage (w/w) of sumatriptan, and RT is the retention time in minutes.

Data set [4] in a line: Characterization of unknown oxidation impurity (LC-MS, HPLC). In kind it is physicochemical. How it is done:
HPLC conditions were the same as that for impurity C and D analysis, and the product peaks were injected into an electrospray ionization mass spectrometer.
To confirm whether oxidation of sumatriptan would lead to the formation of this impurity, sumatriptan succinate was incubated with 25% H2O2 for 2 hours and 24 hours followed by LC-MS analysis.
To test the presence of this impurity in sumatriptan succinate procured from different vendors, solid sumatriptan in powder form as well as sumatriptan dissolved in water were analyzed by HPLC.

The conditions of data set [5]: pH 5.
Procedure: The percent of sumatriptan recovered, i.e., the experimentally determined amount (mg/mL) of sumatriptan divided by the theoretical amount present at each stage, is also provided.
The final stage of the excipient screen was used to establish a compatible preservative. […] Specifically, Stage II samples were removed and split into two tubes each containing 2.5 mL and the remaining solution kept as a control. […] These solutions were then stored at 50° C. for one month and periodically analyzed by HPLC.
The stability and solubility of sumatriptan compositions in acetate buffer with the preservative was also tested. These samples were mixed in a 1:1 ratio.

The term solubility denotes how much of the substance goes into solution per volume. By bioavailability is commonly meant dose-corrected exposure relative to a reference, in per cent. Broadly, the Tmax is the time from dosing to the highest level.

Where two headings read alike, the source gives them in different places.

`CNS(=O)(=O)Cc1ccc2[nH]cc(CCN(C)C)c2c1.O=C(O)CCC(=O)O` [Sumatriptan succinate, 3-[2-(dimethylamino)ethyl]-N-methyl-indole-5-methanesulfonamide succinate (1:1)] displayed a degradation in data set [1] of 1.5%. Further, the solubility was 100 to 115 mg/mL in “physchem” (aqueous buffer, apparent solubility); 149 mg/mL in the data set “physchem” (pH 2, simulated gastric fluid, Apparent solubility, Lower Limit); 162 mg/mL in the data set “physchem” (pH 2, simulated gastric fluid, Apparent solubility, Upper Limit); 110 mg/mL in the data set “physchem” (pH 5, aqueous buffer, Apparent solubility, Lower Limit); 120 mg/mL in the data set “physchem” (pH 5, aqueous buffer, Apparent solubility, Upper Limit); 138 mg/mL in “physchem” (pH 7, aqueous buffer, Apparent solubility, Lower Limit). In addition, the solubility in the data set “physchem” (pH 7, aqueous buffer, Apparent solubility, Upper Limit) was found to be 151 mg/mL; in the data set “physchem” (pH 9, aqueous buffer, Apparent solubility, Lower Limit) it was 138 mg/mL; in the data set “physchem” (pH 9, aqueous buffer, Apparent solubility, Upper Limit), 140 mg/mL. Further, the bioavailability is listed as 97% in data set [2] (6 mg subcutaneous injection) and 17% in data set [2] (20 mg nasal spray). Further, the Tmax in data set [2] (50 mg tablet) is 2.5 h; in data set [2] (nasal spray), 1 h; in data set [2] (subcutaneous injection), 0.2 h. Further, in data set [2] (in vivo), the elimination half-life result was “about 2 hours”. Also, the absolute bioavailability entry in data set [2] (oral administration) is recorded as “about 14%”. The pH of solutions in data set [3] is reported as 4.5-5. For the same compound, the “oxidation impurity (chromatogram)” value in data set [4] (25% v/v H2O2 solution at room temperature for 2 hours) is on record as “formation of the oxidation impurity”; in data set [4] (solid powder at 4° C.) it was “not present”; in data set [4] (solid powder at 50° C.), “not present”. For the same compound, the “oxidation impurity (HPLC)” value in data set [4] (aqueous solution at 50° C. for two weeks) is “formed upon incubation”.

Take HPMC: the “Percent Degradation After 1 month at 50° C.” value in data set [5] turned out to be 0.64%.

In the case of PEG 400, in data set [5], the “Percent Degradation After 1 month at 50° C.” value is listed as 14%.

Take Tween ™ 80: in data set [5], the “Percent Degradation After 1 month at 50° C.” value was 0.49%.

On to Xanthan Gum, for which the “Percent Degradation After 1 month at 50° C.” value in data set [5] is 0.07%.
